For experiment [1], the system named is U937 human histiocytic leukemia cell line. Kind of experiment: Assay 1: inhibition of TSQ induced necroptosis, 96 well plate format. In kind it is cell-based. As to the method:
For in vitro analysis, the necroptosis inhibition may be determined by assays used to measure TSQ-induced necroptosis, as described in the biological tests defined herein.
(§1) Assay 1: Screening Compounds for Inhibition of TSQ Induced Necroptosis, 96 Well Plate Format.
(§2) Cell Line ID: […] human histiocytic leukemia cell line.
(§3) Cell Concentration (cells/well): 35,000 per well in 120 μL of media, counted and plated immediately prior to addition of inhibitor and death stimuli. Final well volume of 150 μL after addition of compounds and death stimuli
(§4) Cell growth medium: HTRPMI (WEHI Media kitchen, contains L-Glutamine and penicillin, streptomycin)—supplemented with 7.4% v/v FCS (Gibco, Precision Plus. Lot #1221437)
(§5) Incubation time (hours): 48 hours following addition of compounds and death stimuli
(§6) Compound Concentrations—Log Titrations:
(§7) DMSO final concentration (% v/v): 1.2% in 10 μM well to 0.2% in the control well.
Compounds that are in the Death Stimulation Cocktail and Their Final Concentrations:
hTNF-Fc (100 ng/ml)—produced by standard procedures as shown in Bossen et al., J Biol Chem, 2006, 281(20), 13964-13971.
Compound A (500 nM)—Smac mimetic, Tetralogic
Q-VD-OPh (10 μM)—MP Biomedicals
(§8) Cells treated with PI staining (1 μg/ml) and analysed by flow cytometry

For experiment [2] the test system is unchanged. In words: Off-target effect (cell based assay), reported with assay 1. As for the experimental part:
as §1, §2, §3, §4, §5, §6, §7, §8

Where [3] appears, read: U-937, comparison tables of the description, values as in Table 1 (assay 1), read-out: IC50 (nM) Necroptosis inhibition.
Setting [4] is: U-937, comparison tables of the description, values as in Table 1 (assay 1), read-out: IC50 (nM) Off-Target Effect.
[5] abbreviates: U-937, Table 1, assay 1, hTNF-Fc 100 ng/ml, Compound A 500 nM, Q-VD-OPh 10 μM, 48 hours, PI staining, flow cytometry, read-out: Inhibition of TSQ-induced necroptosis (cell based assay) IC50.
[6] abbreviates: U-937, Table 1, assay 1, read-out: Off-target effect (cell based assay) IC50.

A word on the IC50: it is the concentration that inhibits the measured activity by half. Regarding `CN(c1ccc(NC(=O)Nc2ccc(OC(F)(F)F)cc2)cc1)c1ccnc(Nc2cccc(S(N)(=O)=O)c2)n1` [Compound 1 from AU 2014903569, reference compound], the values for the half-inhibitory concentration (IC50) in experiment [1] (setting [3]) and in experiment [2] (setting [4]) were 67.9 nM and 3570 nM, respectively.

As to `Cc1ccc(Nc2nccc(N(C)c3ccc(NC(=O)Nc4ccc(OC(F)(F)F)cc4)cc3)n2)cc1CN(C)C` [Compound 1, 1-(4-((2-((3-((dimethylamino)methyl)-4-methylphenyl)amino)pyrimidin-4-yl)(methyl)amino)phenyl)-3-(4-(trifluoromethoxy)phenyl)urea], the half-inhibitory concentration (IC50) in experiment [1] (setting [5]) was 53 nM; in experiment [2] (setting [6]) it was 4680 nM.

Regarding `CN(c1ccc(NC(=O)Nc2ccc(OC(F)(F)F)cc2)cc1)c1nc(Nc2cccc(S(N)(=O)=O)c2)ncc1Cl` [Compound 2, 3-((5-Chloro-4-(methyl(4-(3-(4-(trifluoromethoxy)phenyl)ureido)phenyl)amino)pyrimidin-2-yl)amino) benzenesulfonamide], the concentration for half-maximal inhibition (IC50) is 29.5 nM in experiment [1] (setting [5]), 29.5 nM in experiment [1] (setting [3]), 2110 nM in experiment [2] (setting [6]) and 2110 nM in experiment [2] (setting [4]).

With `CN(c1ccc(NC(=O)Nc2cc(C(F)(F)F)ccc2F)cc1)c1ccnc(Nc2cccc(S(N)(=O)=O)c2)n1` [Compound 3 from AU 2014903569, reference compound], the IC50 in experiment [2] (setting [4]) was found to be 791 nM.

On to `CNC(=O)c1cc(Nc2nccc(N(C)c3ccc(NC(=O)Nc4ccc(OC(F)(F)F)cc4)cc3)n2)ccc1C` [Compound 3, N-2-Dimethyl-5-((4-(methyl(4-(3-(4-(trifluoromethoxy)phenyl)ureido)phenyl)amino)pyrimidin-2-yl)amino)benzamide], for which the IC50 in experiment [1] (setting [5]) is 93.1 nM; in experiment [1] (setting [3]), 93.1 nM; in experiment [2] (setting [6]), > 10000 nM; in experiment [2] (setting [4]), > 10000 nM.

`Cc1ccc(Nc2nccc(N(C)c3ccc(NC(=O)Nc4ccc(OC(F)(F)F)cc4)cc3)n2)cc1C(N)=O` [Compound 4, 2-Methyl-5-((4-(methyl(4-(3-(4-(trifluoromethoxy)phenyl)ureido)phenyl)amino)pyrimidin-2-yl)amino) benzamide]: the figures for the concentration for half-maximal inhibition (IC50) in experiment [1] (setting [5]) and in experiment [2] (setting [6]) were 154 nM and 7410 nM, respectively.

Take `CN(c1ccc(NC(=O)Nc2ccc(OC(F)(F)F)cc2)cc1)c1nc(Nc2cccc(S(N)(=O)=O)c2)ncc1F` [Compound 5, 3-((5-Fluoro-4-(methyl(4-(3-(4-(trifluoromethoxy)phenyl)ureido)phenyl)amino)pyrimidin-2-yl)amino) benzenesulfonamide]: the IC50 in experiment [1] (setting [5]) came out at 30 nM; in experiment [2] (setting [6]) it was 3110 nM.

As for `CN(c1ccc(NC(=O)Nc2ccc(OC(F)(F)F)cc2)cc1)c1nc(Nc2cccc(S(N)(=O)=O)c2)ncc1C(F)(F)F` [Compound 6a, 3-((4-(Methyl(4-(3-(4-(trifluoromethoxy)phenyl)ureido)phenyl)amino)-5-(trifluoromethyl)pyrimidin-2-yl)amino)benzenesulfonamide], the 50% inhibitory concentration (IC50) is > 10000 nM in experiment [1] (setting [3]) and 5070 nM in experiment [2] (setting [4]).

As for `Cc1ccc(Nc2nccc(N(C)c3ccc(NC(=O)Nc4ccc(OC(F)(F)F)cc4)cc3)n2)cc1N1CCCC1=O` [Compound 7], the values for the half-inhibitory concentration (IC50) in experiment [1] (setting [5]) and in experiment [2] (setting [6]) were 51.8 nM and > 10000 nM, respectively.

`CN(c1ccc(NC(=O)Nc2ccc(OC(F)(F)F)cc2)cc1)c1ccnc(Nc2cccc(N3CCCC3=O)c2)n1` [Compound 8, 1-(4-(Methyl(2-((3-(2-oxopyrrolidin-1-yl)phenyl)amino)pyrimidin-4-yl)amino)phenyl)-3-(4-(trifluoromethoxy)phenyl)urea]: the IC50 is 75.4 nM in experiment [1] (setting [5]), 75.4 nM in experiment [1] (setting [3]), > 10000 nM in experiment [2] (setting [6]) and > 10000 nM in experiment [2] (setting [4]).

Turning to `COCCNC(=O)c1cc(Nc2nccc(N(C)c3ccc(NC(=O)Nc4ccc(OC(F)(F)F)cc4)cc3)n2)ccc1C` [Compound 9, N-(2-Methoxyethyl)-2-methyl-5-((4-(methyl(4-(3-(4-(trifluoromethoxy)phenyl)ureido)phenyl)amino)pyrimidin-2-yl)amino)benzamide], the half-maximal inhibitory concentration (IC50) in experiment [1] (setting [5]) is 97.3 nM; in experiment [2] (setting [6]), > 10000 nM.

Turning to `CN(c1ccc(NC(=O)Nc2cc(F)cc(C(F)(F)F)c2)cc1)c1ccnc(Nc2cccc(S(N)(=O)=O)c2)n1` [Compound 10, 3-((4-((4-(3-(3-fluoro-5-(trifluoromethyl)phenyl)ureido)phenyl)(methyl)amino)pyrimidin-2-yl)amino)benzenesulfonamide], the IC50 is < 1 nM in experiment [1] (setting [5]), < 1 nM in experiment [1] (setting [3]), 506 nM in experiment [2] (setting [6]) and 506 nM in experiment [2] (setting [4]).

With `CN(c1ccc(NC(=O)Nc2ccc(OC(F)(F)F)cc2)cc1)c1ccnc(Nc2cccc(-c3nnn(C)n3)c2)n1` [Compound 11, 1-(4-(Methyl(2-((3-(2-methyl-2H-tetrazol-5-yl)phenyl)amino)pyrimidin-4-yl)amino)phenyl)-3-(4-(trifluoromethoxy)phenyl)urea], the 50% inhibitory concentration (IC50) stood at 7.5 nM in experiment [1] (setting [5]) and 1350 nM in experiment [2] (setting [6]).

On to `CNC(=O)c1cc(Nc2ncc(F)c(N(C)c3ccc(NC(=O)Nc4ccc(OC(F)(F)F)cc4)cc3)n2)ccc1C` [Compound 12, 5-((5-Fluoro-4-(methyl(4-(3-(4-(trifluoromethoxy)phenyl)ureido)phenyl)amino)pyrimidin-2-yl)amino)-N,2-dimethylbenzamide], for which the half-maximal inhibitory concentration (IC50) in experiment [1] (setting [5]) was 10.1 nM; in experiment [1] (setting [3]), 10.1 nM; in experiment [2] (setting [6]) it was > 10000 nM; in experiment [2] (setting [4]), > 10000 nM.

With `CNC(=O)c1cc(Nc2nccc(N(C)c3ccc(NC(=O)Nc4ccc(Cl)c(C(F)(F)F)c4)cc3)n2)ccc1C` [Compound 14, 5-((4-((4-(3-(4-Chloro-3-(trifluoromethyl)phenyl)ureido)phenyl)(methyl)amino)pyrimidin-2-yl)amino)-N,2-dimethylbenzamide], the values for the 50% inhibitory concentration (IC50) in experiment [1] (setting [5]) and in experiment [2] (setting [6]) were 8.9 nM and 1630 nM, respectively.

`CNC(=O)c1cc(Nc2ncc(F)c(N(C)c3ccc(NC(=O)Nc4cc(C(F)(F)F)ccc4F)cc3)n2)ccc1C` [Compound 15, 5-(5-fluoro-4-((4-(3-(2-fluoro-5-(trifluoromethyl)phenyl)ureido)phenyl)(methyl)amino)pyrimidin-2-ylamino)-N,2-dimethylbenzamide]: the results for the IC50 in experiment [1] (setting [5]) and in experiment [2] (setting [6]) were < 1 nM and 103 nM, respectively.

For `CNC(=O)c1cc(Nc2nccc(N(C)c3ccc(NC(=O)Nc4cc(F)cc(C(F)(F)F)c4)cc3)n2)ccc1C` [Compound 16, 5-(4-((4-(3-(3-fluoro-5-(trifluoromethyl)phenyl)ureido)phenyl)(methyl)amino)-pyrimidin-2-ylamino)-N,2-dimethylbenzamide], the IC50 in experiment [1] (setting [5]) amounted to 10.8 nM; in experiment [2] (setting [6]), 1230 nM.

Consider `CNC(=O)c1cc(Nc2nccc(N(C)c3ccc(NC(=O)Nc4cc(F)cc(C(F)(F)F)c4)cc3)n2)ccc1N1CCN(C)CC1` [Compound 31], for which the IC50 in experiment [1] (setting [5]) came to 13 nM.

Turning to `CNC(=O)c1cc(Nc2nccc(N(C)c3ccc(NC(=O)Nc4cc(F)cc(C(F)(F)F)c4)cc3)n2)ccc1OCCN1CCCC1` [Compound 32, 5-((4-((4-(3-(3-fluoro-5-(trifluoromethyl)phenyl)ureido)phenyl)(methyl)amino)pyrimidin-2-yl)amino)-N-methyl-2-(2-(pyrrolidin-1-yl)ethoxy)benzamide], the IC50 in experiment [1] (setting [5]) was 40 nM.

Values taken from patent US20180057465A1, “Inhibitors of Necroptosis” (Catalyst Therapeutics Pty Ltd, priority 2015, published 2018).
